Laboratory results reported in US8975252B2, “Morpholine derivative” (Shanghai Pharmaceuticals Holding Co., Ltd., priority 2007, dated 2015).
Counter-ions that a name gives are not always drawn. Like-named read-outs stand apart in the source and are kept apart here.

Target: Recombinant human renin (Homo sapiens (Human), UniProt P00797)
Experiment: Inhibitory activity against human renin (fluorogenic synthetic peptide substrate)
Type: biochemical
Experimental: Inhibitory Activity Against Human Renin
A renin substrate of synthetic peptide (Nma-KHPFH LVIHK(Dnp)-NH2) and test compound were mixed, and fluorescence intensity was assayed using a fluorophotometer before starting an enzymatic reaction (exciting wavelength: 340 nm, measuring wavelength: 460 nm). Recombinant human renin was added and the mixture was incubated at 37° C. for an hour, and the fluorescence intensity was measured after the reaction using a fluorophotometer (exciting wavelength: 340 nm, measuring wavelength: 460 nm). Renin activity was evaluated on the ground of fluorescence intensity which was obtained by deduction of the intensity before the reaction from the intensity after the reaction, and 50% inhibitory concentration (IC50) was calculated from renin activities under the existence of various concentration of the tested compound.

[1] = recombinant human renin, substrate Nma-KHPFH LVIHK(Dnp)-NH2, 37° C. for an hour, fluorescence, read-out: Inhibitory Activity against human Renin(IC50)

Recombinant human renin, sequence (P00797 67-406): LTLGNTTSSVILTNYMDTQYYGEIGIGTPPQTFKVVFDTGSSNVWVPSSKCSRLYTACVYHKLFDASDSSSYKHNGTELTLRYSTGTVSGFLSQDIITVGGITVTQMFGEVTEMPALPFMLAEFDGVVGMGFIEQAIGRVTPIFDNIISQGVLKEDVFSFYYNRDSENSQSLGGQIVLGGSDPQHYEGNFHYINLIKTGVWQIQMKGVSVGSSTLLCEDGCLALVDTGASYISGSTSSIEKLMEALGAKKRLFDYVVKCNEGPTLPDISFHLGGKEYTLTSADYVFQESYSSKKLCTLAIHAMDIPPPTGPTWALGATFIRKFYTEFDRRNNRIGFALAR

Row | IC50 (assay for renin-inhibition, read-out: renin-inhibition IC50) [nM] | Compound | IC50 [1] [nM]
1 | – | COCCCOc1cc(CN(C(=O)[C@H]2CNCCO2)C2CC2)cc2ccccc12 [Example 4, (2R)—N-cyclopropyl-N-{[4-(3-methoxypropoxy)-2-naphthyl]methyl}morpholin-2-carboxamide hydrochloride] | 30.2
2 | < 1000 | COCCCOc1cc(CN(C(=O)[C@H]2CNCCO2)C2CC2)ccc1OC [(2R)—N-cyclopropyl-N-[4-methoxy-3-(3-methoxypropoxy)benzyl]morpholine-2-carboxamide hydrochloride] | –
3 | – | COCCCn1cc(CN(C(=O)[C@H]2CNCCO2)C2CC2)c2ccccc21 [Example 39] | 13
